Measured values published in patent publication US20220119354A1, “DIAMINO-SUBSTITUTED PYRIDINES AND PYRIMIDINES AS HERBICIDES” (FMC Corporation, priority 2019, published 2022).

Columns and labels:
Format in all cases: in vivo
[1] = system: barnyardgrass (Echinochloa crus-galli); experiment: Test A preemergence, barnyardgrass; settings: 0 to 100 scale, 0 is no effect, 100 is complete control
Outline: (§1)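 Ratings reflect visual comparison with untreated controls roughly 10 d after greenhouse application, 0 meaning no effect and 100 complete control. Treatment was by directed soil spray at planting or by spray onto one- to two-leaf plants in loam/sand pots.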

[2] = system: kochia (Kochia scoparia); experiment: Test A preemergence, kochia; settings: 0 to 100 scale, 0 is no effect, 100 is complete control
Outline: as §1

[3] = system: ragweed (common ragweed, Ambrosia elatior); experiment: Test A preemergence, ragweed; settings: 0 to 100 scale, 0 is no effect, 100 is complete control
Outline: as §1

[4] = system: ryegrass, Italian (Lolium multiflorum); experiment: Test A preemergence, Italian ryegrass; settings: 0 to 100 scale, 0 is no effect, 100 is complete control
Outline: as §1

[5] = system: foxtail, giant (Setaria faberii); experiment: Test A preemergence, giant foxtail; settings: 0 to 100 scale, 0 is no effect, 100 is complete control
Outline: as §1

[6] = system: pigweed (Amaranthus retroflexus); experiment: Test A preemergence, pigweed; settings: 0 to 100 scale, 0 is no effect, 100 is complete control
Outline: as §1

[7] = system: barnyardgrass (Echinochloa crus-galli); experiment: Test A postemergence, barnyardgrass; settings: 0 to 100 scale, 0 no effect, 100 complete control
Outline: as §1

[8] = system: kochia (Kochia scoparia); experiment: Test A postemergence, kochia; settings: 0 to 100 scale, 0 no effect, 100 complete control
Outline: as §1

[9] = system: ragweed (common ragweed, Ambrosia elatior); experiment: Test A postemergence, ragweed; settings: 0 to 100 scale, 0 no effect, 100 complete control
Outline: as §1

[10] = system: ryegrass, Italian (Lolium multiflorum); experiment: Test A postemergence, Italian ryegrass; settings: 0 to 100 scale, 0 no effect, 100 complete control
Outline: as §1

[11] = system: foxtail, giant (Setaria faberii); experiment: Test A postemergence, giant foxtail; settings: 0 to 100 scale, 0 no effect, 100 complete control
Outline: as §1

[12] = system: pigweed (Amaranthus retroflexus); experiment: Test A postemergence, pigweed; settings: 0 to 100 scale, 0 no effect, 100 complete control
Outline: as §1

[13] = system: wheat (Triticum aestivum); experiment: Test A postemergence, wheat; settings: 0 to 100 scale, 0 no effect, 100 complete control
Outline: as §1

[14] = system: corn (Zea mays); experiment: Test A postemergence, corn; settings: 0 to 100 scale, 0 no effect, 100 complete control
Outline: as §1

[15] = system: blackgrass (Alopecurus myosuroides); experiment: Test A postemergence, blackgrass; settings: 0 to 100 scale, 0 no effect, 100 complete control
Outline: as §1

[16] = system: galium (catchweed bedstraw, Galium aparine); experiment: Test A postemergence, galium; settings: 0 to 100 scale, 0 no effect, 100 complete control
Outline: as §1

[17] = system: rice (Oryza sativa); experiment: Test B flooded paddy test, rice; settings: Flood, 250 g ai/ha, applied to paddy water, 2-leaf stage, visual evaluation after 13 to 15 d
Outline: (§2)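 Visual injury scores run from 0 (no effect) to 100 (complete control), assigned by comparison with controls 13 to 15 d after treatment. Treatment went into floodwater standing 3 cm over the soil of pots holding 2-leaf plants.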

[18] = system: sedge, umbrella (small-flower umbrella sedge, Cyperus difformis); experiment: Test B flooded paddy test, umbrella sedge; settings: Flood, 250 g ai/ha, applied to paddy water, 2-leaf stage, visual evaluation after 13 to 15 d
Outline: as §2

[19] = system: ducksalad (Heteranthera limosa); experiment: Test B flooded paddy test, ducksalad; settings: Flood, 250 g ai/ha, applied to paddy water, 2-leaf stage, visual evaluation after 13 to 15 d
Outline: as §2

[20] = system: barnyardgrass (Echinochloa crus-galli); experiment: Test B flooded paddy test, barnyardgrass; settings: Flood, 250 g ai/ha, applied to paddy water, 2-leaf stage, visual evaluation after 13 to 15 d
Outline: as §2

Compound | Barnyardgrass plant response rating ([1]; 125 g ai/ha) | Barnyardgrass plant response rating ([1]; 500 g ai/ha) | Kochia plant response rating ([2]; 125 g ai/ha) | Kochia plant response rating ([2]; 500 g ai/ha) | Ragweed plant response rating ([3]; 125 g ai/ha) | Ragweed plant response rating ([3]; 500 g ai/ha) | Ryegrass, Italian plant response rating ([4]; 125 g ai/ha) | Ryegrass, Italian plant response rating ([4]; 500 g ai/ha) | Foxtail, Giant plant response rating ([5]; 125 g ai/ha) | Foxtail, Giant plant response rating ([5]; 500 g ai/ha) | Pigweed plant response rating ([6]; 125 g ai/ha) | Pigweed plant response rating ([6]; 500 g ai/ha) | Plant response rating, Barnyardgrass ([7]; 125 g ai/ha) | Plant response rating, Barnyardgrass ([7]; 500 g ai/ha) | Plant response rating, Kochia ([8]; 125 g ai/ha) | Plant response rating, Kochia ([8]; 500 g ai/ha) | Plant response rating, Ragweed ([9]; 125 g ai/ha) | Plant response rating, Ragweed ([9]; 500 g ai/ha) | Plant response rating, Ryegrass, Italian ([10]; 125 g ai/ha) | Plant response rating, Ryegrass, Italian ([10]; 500 g ai/ha) | other results
CC(Nc1nc(N)c(C(F)(F)F)c(C(F)(F)F)n1)c1cc2ccccc2o1 (racemic) [Compound 58] | 0 | 0 | 0 | 0 | 0 | 0 | 0 | 0 | 0 | 0 | 0 | 0 | 0 | 50 | 30 | 80 | 0 | 20 | 0 | 0 | Plant response rating, Foxtail, Giant ([11]; 125 g ai/ha): 0; Plant response rating, Foxtail, Giant ([11]; 500 g ai/ha): 10; Plant response rating, Pigweed ([12]; 125 g ai/ha): 20; Plant response rating, Pigweed ([12]; 500 g ai/ha): 60; Plant response rating, Wheat ([13]; 125 g ai/ha): 0; Plant response rating, Wheat ([13]; 500 g ai/ha): 0; Plant response rating, Corn ([14]; 125 g ai/ha): 0; Plant response rating, Corn ([14]; 500 g ai/ha): 0; Plant response rating, Blackgrass ([15]; 125 g ai/ha): 0; Plant response rating, Blackgrass ([15]; 500 g ai/ha): 0; Plant response rating, Galium ([16]; 125 g ai/ha): 0; Plant response rating, Galium ([16]; 500 g ai/ha): 20; Plant response rating, Rice (0 to 100 scale, 0 is no effect, 100 is complete control) [17]: 0; Plant response rating, Sedge, Umbrella (0 to 100 scale, 0 is no effect, 100 is complete control) [18]: 0; Plant response rating, Ducksalad (0 to 100 scale, 0 is no effect, 100 is complete control) [19]: 0; Plant response rating, Barnyardgrass (0 to 100 scale, 0 is no effect, 100 is complete control) [20]: 0
CC(Nc1nc(N)c(C(F)(F)F)c(C(F)(F)F)n1)C1Cc2ccccc2C1 (racemic) [Compound 69] | 0 | 0 | 0 | 70 | 0 | 70 | 0 | 0 | 0 | 0 | 0 | 70 | 0 | 0 | 30 | 80 | 0 | 0 | 0 | 0 | Plant response rating, Foxtail, Giant ([11]; 125 g ai/ha): 0; Plant response rating, Foxtail, Giant ([11]; 500 g ai/ha): 0; Plant response rating, Pigweed ([12]; 125 g ai/ha): 20; Plant response rating, Pigweed ([12]; 500 g ai/ha): 80; Plant response rating, Wheat ([13]; 125 g ai/ha): 0; Plant response rating, Wheat ([13]; 500 g ai/ha): 0; Plant response rating, Corn ([14]; 125 g ai/ha): 20; Plant response rating, Corn ([14]; 500 g ai/ha): 0; Plant response rating, Blackgrass ([15]; 125 g ai/ha): 0; Plant response rating, Blackgrass ([15]; 500 g ai/ha): 30; Plant response rating, Galium ([16]; 125 g ai/ha): 0; Plant response rating, Galium ([16]; 500 g ai/ha): 0; Plant response rating, Rice (0 to 100 scale, 0 is no effect, 100 is complete control) [17]: 0; Plant response rating, Sedge, Umbrella (0 to 100 scale, 0 is no effect, 100 is complete control) [18]: 0; Plant response rating, Ducksalad (0 to 100 scale, 0 is no effect, 100 is complete control) [19]: 0; Plant response rating, Barnyardgrass (0 to 100 scale, 0 is no effect, 100 is complete control) [20]: 0
CC(Nc1ncc(C(F)(F)F)c(N)n1)c1cc2ccc(Cl)cc2s1 (racemic) [Compound 70] | 0 | 30 | 0 | 40 | 20 | 90 | 0 | 0 | 0 | 50 | 30 | 90 | 20 | 70 | 50 | 80 | 0 | 50 | 0 | 0 | Plant response rating, Foxtail, Giant ([11]; 125 g ai/ha): 0; Plant response rating, Foxtail, Giant ([11]; 500 g ai/ha): 60; Plant response rating, Pigweed ([12]; 125 g ai/ha): 100; Plant response rating, Pigweed ([12]; 500 g ai/ha): 100; Plant response rating, Wheat ([13]; 125 g ai/ha): 0; Plant response rating, Wheat ([13]; 500 g ai/ha): 0; Plant response rating, Corn ([14]; 125 g ai/ha): 0; Plant response rating, Corn ([14]; 500 g ai/ha): 0; Plant response rating, Blackgrass ([15]; 125 g ai/ha): 0; Plant response rating, Blackgrass ([15]; 500 g ai/ha): 30; Plant response rating, Galium ([16]; 125 g ai/ha): 0; Plant response rating, Galium ([16]; 500 g ai/ha): 80; Plant response rating, Rice (0 to 100 scale, 0 is no effect, 100 is complete control) [17]: 0; Plant response rating, Sedge, Umbrella (0 to 100 scale, 0 is no effect, 100 is complete control) [18]: 0; Plant response rating, Ducksalad (0 to 100 scale, 0 is no effect, 100 is complete control) [19]: 0; Plant response rating, Barnyardgrass (0 to 100 scale, 0 is no effect, 100 is complete control) [20]: 0
